Source: paper PMC8391127, “Triterpenoid–PEG Ribbons Targeting Selectivity in Pharmacological Effects” (Biomedicines, 2021)

How the values were obtained:
[1] = Self-assembly by UV-VIS spectrometry in methanol/water mixtures; type: physicochemical; conditions: 0-140 h
Method: The self-assembly of the selected compounds 8a, 12a, 8b, 12b, 4c, 6c, 6d, and 8d was measured using UV absorption in methanol/water mixtures with a constant concentration of the studied compound for 7 days in one-hour intervals on the first day, and in 24 h intervals all following days. The stock solutions of the studied compounds were prepared at a concentration of 1 mg·mL^−1 in water. Then, a series of methanol/water mixtures were prepared starting from a methanol/water ratio 100/0 down to 0/100 in 20% steps. The stock solutions of the studied compounds (0.15 mL) were added separately to each vial containing methanol/water mixtures (3 mL), and the UV spectra were recorded in the wavelength range of 200–400 nm. […] For the compounds 8a, 12a, 12b and 6d, the details are presented in the Supplementary Material; see Figure S2.
Supramolecular self-assembly was studied on the basis of the UV-VIS spectra of the compounds in several methanol/water mixtures stepwise during the time interval 0-140 h. Here we show compounds 8a, 12a, 12b and 6d as examples, with which the irregularities in the UV-VIS spectra were either well pronounced (8a and 12a; Figure S2), or no substantial irregularity was detected (12b and 6d).
Figure S2. UV-VIS spectra of 8a (top) and 12a (bottom) measured in the interval 0-140 h.
During that time interval a new maximum appeared at 300 nm wavelength, and the shape of the curves is different than in any of the other intervals of measurement. […]

Pseudomonas aeruginosa = experiment: Antimicrobial screening, resazurine test; type: cell-based; conditions: P. aeruginosa
Method: (§1) The resazurine test was used to evaluate this activity.
(§2) The cell inoculum was made in Mueller–Hinton broth (10 mL). Colonies of cells were inoculated from the solid medium that was cultivated for 24 h under optimum conditions. A part of the inoculum was diluted to get suspension with an optical density 0.6 to 0.9 McF. An aliquot amount (1 mL) was taken and diluted with additional volume of the medium (19 mL). The stored solutions of the tested compounds were made at a concentration c = 200 µg.mL^−1. The stored suspensions of the cells, MHB medium, solutions of the antibiotics specific for the given bacteria (vancomycin for S. aureus and E. faecalis, kanamycin for E. coli and P. aeruginosa, and tetracycline for B. cereus), and the solutions of the compounds were pipetted into the microtitration plates. Subsequently, a concentration sequence of the tested compounds was made (c = 100, 50, and 25 µg.mL^−1). The content of the microtitration plates was cultivated for 24 h under optimum conditions for the given bacteria. A solution of resazurine was made, based on a dilution of its stored solution (c = 0.15 mg.mL^−1; 2 mL) into the MHB medium (18 mL). Then, it was pipetted into the microtitration plates that were cultivated for an additional 1 h. Finally, fluorescence measurement (excitation at 560 nm, emission at 590 nm) was made, and the inhibition of the bacterium was determined.
(§3) 2. Antimicrobial screening tests
(§4) Antimicrobial activity of the target molecular ribbons 8a, 12a, 8b, 12b, 4c, 6c, 6d and 8d, and […]
(§5) aeruginosa, Staphylococcus aureus and Enterococcus faecalis. The resazurine test was used to […]
(§6) ribbons which have been achieved in this investigation.
(§7) Table S1. Antimicrobial activity, inhibition of the microorganism [%]
(§8) Comp. Staphylococcus aureus Comp. Escherichia coli […]
(§9) µg·mL-1 µg·mL-1 µg·mL-1 µg·mL-1 µg·mL-1 µg·mL-1
(§10) Comp. Bacillus cereus Comp. Pseudomonas aeruginosa

Enterococcus faecalis = experiment: Antimicrobial screening, resazurine test; type: cell-based; conditions: Enterococcus faecalis, E. faecalis, read-out: Inhibition of the microorganism
Method: as §1, §2, §3, §4, §5, §6, §7, §8, §9, §10

Bacillus cereus = experiment: Antimicrobial screening, resazurine test; type: cell-based; conditions: Bacillus cereus, B. cereus, read-out: Inhibition of the microorganism
Method: as §1, §2, §3, §4, §5, §6, §7, §8, §9, §10

Staphylococcus aureus = experiment: Antimicrobial screening, resazurine test; type: cell-based; conditions: Staphylococcus aureus, S. aureus, read-out: Inhibition of the microorganism
Method: as §1, §2, §3, §4, §5, §6, §7, §8, §9, §10

Escherichia coli = experiment: Antimicrobial screening, resazurine test; type: cell-based; conditions: Escherichia coli, E. coli, read-out: Inhibition of the microorganism
Method: as §1, §2, §3, §4, §5, §6, §7, §8, §9, §10

[2] = Cytotoxicity screening test; type: cell-based; conditions: human
Excerpt: (§11) Description of the experimental procedure used in the cytotoxicity screening test was already published. The following cancer cell lines were used in the investigation: T-lymphoblastic leukemia, CEM; breast carcinoma, MCF7; cervical carcinoma, HeLa; and malignant melanoma, G-361. Human foreskin fibroblasts, BJ, were used as reference cells. All of the above cell lines were obtained from the American Type Culture Collection (Manassas, VA, USA). African green monkey kidney Vero cells were obtained from the European Collection of Cell Cultures (Salisbury, UK) and human T-cell leukemia MT-4 cells were obtained through the NIH AIDS Reagent Program, Division of AIDS, NIAID, NIH, from Dr. Douglas Richman. All cells, but MT-4 cells, were cultured in DMEM (Dulbecco’s Modified Eagle Medium, Sigma, St. Louis, MO, USA). MT-4 cells were maintained in RPMI1640 medium. Media used were supplemented with 10% fetal bovine serum, 2 mM L-glutamine, and 1% penicillin–streptomycin (all Sigma, St. Louis, MO, USA). The cell lines were maintained under standard cell culture conditions at 37 °C and 5% CO2 in a humid environment. Cells were subcultured twice or three times a week using the standard trypsinization procedure.

[3] = Ability to form supramolecular gel; type: physicochemical; conditions: 1% w/v in solvent, ultrasound 30 min, heated to boiling, cooled to r.t. 24 h
Method: The solutions of the studied compounds 8a, 12a, 8b, 12b, 4c, 6c, 6d, and 8d (1%, w/v) in the appropriate solvent were mixed with ultrasound for 30 min, then heated to the boiling points of the used solvents, and then allowed to cool down to the r.t. for 24 h. An example of the resulting gels that were produced from 8a, 4c, 6c, and 6d is shown in the Supplementary Material, Figure S1.

[4] = Cytotoxicity screening test, reference cells; type: cell-based; conditions: BJ foreskin fibroblasts; BJ human fibroblasts
Excerpt: as §11

CC1(C)C=C2C3CC[C@@H]4[C@@]5(C)CC[C@H](OCc6cn(CCOCCOCCOCCNC(=O)[C@]78CCC(C)(C)C=C7[C@H]7CC[C@@H]9[C@@]%10(C)CCC(=O)C(C)(C)[C@@H]%10CC[C@@]9(C)[C@]7(C)CC8)nn6)C(C)(C)[C@@H]5CC[C@@]4(C)[C@]3(C)CC[C@@]2(C(=O)O)CC1 (stereo partly shown) [6d]
Irregularity in UV-VIS spectra (self-assembly) [1]: No substantial irregularity was detected
inhibition at 25 µg/mL (Pseudomonas aeruginosa; c = 25 µg·mL-1, read-out: Inhibition of the microorganism): 0 to 1%
inhibition at 50 µg/mL (Pseudomonas aeruginosa; c = 50 µg·mL-1, read-out: Inhibition of the microorganism): 0 to 1%
inhibition at 100 µg/mL (Pseudomonas aeruginosa; c = 100 µg·mL-1, read-out: Inhibition of the microorganism): 0 to 1%
inhibition at 25 µg/mL (Enterococcus faecalis; c = 25 µg·mL-1): 2 ± 0.3%
inhibition at 50 µg/mL (Enterococcus faecalis; c = 50 µg·mL-1): 14 ± 2.1%
inhibition at 100 µg/mL (Enterococcus faecalis; c = 100 µg·mL-1): 28 ± 4.2%
inhibition at 25 µg/mL (Bacillus cereus; c = 25 µg·mL-1): 1 ± 0.2%
inhibition at 50 µg/mL (Bacillus cereus; c = 50 µg·mL-1): 0 to 1%
inhibition at 100 µg/mL (Bacillus cereus; c = 100 µg·mL-1): 3 ± 0.5%
inhibition at 25 µg/mL (Staphylococcus aureus; c = 25 µg·mL-1): 25 ± 3.8%
inhibition at 50 µg/mL (Staphylococcus aureus; c = 50 µg·mL-1): 31 ± 4.7%
inhibition at 100 µg/mL (Staphylococcus aureus; c = 100 µg·mL-1): 0 to 1%
inhibition at 25 µg/mL (Escherichia coli; c = 25 µg·mL-1): 9 ± 1.4%
inhibition at 50 µg/mL (Escherichia coli; c = 50 µg·mL-1): 13 ± 2%
inhibition at 100 µg/mL (Escherichia coli; c = 100 µg·mL-1): 0 to 1%
IC50 ([2]; CEM T-lymphoblastic leukemia cells): > 50 µM
IC50 ([2]; G-361 malignant melanoma cells): 20 ± 0.6 µM
IC50 ([2]; HeLa cervical carcinoma cells): > 50 µM
IC50 ([2]; MCF7 breast carcinoma cells): > 50 µM
Gel formation [3]: produced a gel in glycerol
IC50 [4]: > 50 µM
